# From PMC3433420 (PLoS ONE, 2012)
# Residues, ends and D or L forms follow the SMILES beside them.
# Columns and labels:
# RASA1-N SH2 domain = target: T1, RASA1-N SH2 domain (Homo sapiens, UniProt P20936); assay: FP saturation binding assay
# T1 sequence (P20936 181-272 limits assumed): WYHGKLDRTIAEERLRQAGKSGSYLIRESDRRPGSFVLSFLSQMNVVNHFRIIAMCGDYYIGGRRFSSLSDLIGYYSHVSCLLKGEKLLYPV
# PIK3R2-N SH2 domain = PIK3R2-N SH2 domain (Homo sapiens, UniProt O00459); assay: FP saturation binding assay
# [1] = target: T2, PIK3R3-NC tandem SH2 domains (Homo sapiens, UniProt Q92569); assay: FP saturation binding assay; settings: Protein PIK3R3-NC; FP saturation binding, high-confidence ErbB interactions; mean over replicate hits
# T2 construct: the tandem protein was included in our analysis with all internal amino acids linking the domains; 6X His; thioredoxin; made in house; host or cells: E. coli BL21(DE3)pLysS
# Procedure, shortened: (§1)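 KD values come from least-squares fits of fluorescence polarization (ex 530, em 555 nm), corrected for thioredoxin nonspecific binding and plate baseline, with outliers pruned. Fixed 10 nM labeled peptide met a 0.002–10 µM protein series for 20 min at room temperature in HEPES/KCl/Tween/DTT buffer, pH 7.8.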
# [2] = target: PIK3R2-NC tandem SH2 domains (Homo sapiens, UniProt O00459); assay: FP saturation binding assay
# SH2D1B SH2 domain = target: T3, SH2D1B SH2 domain (Homo sapiens, UniProt O14796); assay: FP saturation binding assay
# T3 sequence (O14796 5-101 limits assumed): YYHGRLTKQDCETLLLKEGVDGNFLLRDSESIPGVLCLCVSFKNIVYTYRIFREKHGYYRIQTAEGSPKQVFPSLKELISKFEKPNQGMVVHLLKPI
# PTPN11-N SH2 domain = target: T4, PTPN11-N SH2 domain (Homo sapiens, UniProt Q06124); assay: FP saturation binding assay
# T4 sequence (Q06124 6-102 limits assumed): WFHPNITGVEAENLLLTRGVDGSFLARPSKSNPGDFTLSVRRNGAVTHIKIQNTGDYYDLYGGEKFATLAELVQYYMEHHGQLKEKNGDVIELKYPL
# [3] = target: T5, RASA1-NC tandem SH2 domains (Homo sapiens, UniProt P20936); assay: FP saturation binding assay; settings: Protein RASA1-NC; FP saturation binding, high-confidence ErbB interactions; mean over replicate hits
# T5 construct: the tandem protein was included in our analysis with all internal amino acids linking the domains; 6X His; thioredoxin; made in house; host or cells: E. coli BL21(DE3)pLysS
# T5 sequence (P20936 181-441 limits assumed): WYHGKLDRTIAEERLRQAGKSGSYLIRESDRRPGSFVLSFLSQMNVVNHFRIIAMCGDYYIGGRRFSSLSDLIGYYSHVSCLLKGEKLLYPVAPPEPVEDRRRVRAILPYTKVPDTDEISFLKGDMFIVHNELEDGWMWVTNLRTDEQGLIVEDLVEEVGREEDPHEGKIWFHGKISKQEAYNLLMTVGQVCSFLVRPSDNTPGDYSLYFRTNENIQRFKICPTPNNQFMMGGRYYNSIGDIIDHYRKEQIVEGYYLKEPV
# Procedure, shortened: as §1
# LCK SH2 domain = target: T6, LCK SH2 domain (Homo sapiens, UniProt P06239); assay: FP saturation binding assay; settings: Protein LCK; FP saturation binding, high-confidence ErbB interactions; mean over replicate hits
# T6 construct: 93 SH2 and 2 PTB domain-containing constructs; 6X His; thioredoxin; made in house; host or cells: E. coli BL21(DE3)pLysS
# Procedure, shortened: as §1
# YES1 SH2 domain = target: T7, YES1 SH2 domain (Homo sapiens, UniProt P07947); assay: FP saturation binding assay; settings: Protein YES1; FP saturation binding, high-confidence ErbB interactions; mean over replicate hits
# T7 construct: 6X His; thioredoxin; made in house; host or cells: BL21(DE3)pLysS E. coli
# Procedure, shortened: as §1
# PTK6 SH2 domain = target: T8, PTK6 SH2 domain (Homo sapiens, UniProt Q13882); assay: FP saturation binding assay; settings: Protein PTK6; FP saturation binding, high-confidence ErbB interactions; mean over replicate hits
# T8 construct: from the PTK6 SH2 domain; 6X His; thioredoxin; made in house; host or cells: E. coli BL21(DE3)pLysS
# Procedure, shortened: as §1
# PIK3R3-N SH2 domain = target: T9, PIK3R3-N SH2 domain (Homo sapiens, UniProt Q92569); assay: FP saturation binding assay; settings: Protein PIK3R3-N; FP saturation binding, high-confidence ErbB interactions; mean over replicate hits
# T9 construct: 6X His; thioredoxin; made in house; host or cells: E. coli BL21(DE3)pLysS
# Procedure, shortened: as §1
# PIK3R1-N SH2 domain = target: T10, PIK3R1-N SH2 domain (Homo sapiens, UniProt P27986); assay: biochemical; format: binding; settings: protein PIK3R1-N; FP, high-confidence ErbB interactions; mean of replicate hits
# T10 construct: thioredoxin; made in house; host or cells: E. coli BL21(DE3)pLysS
# GRB7 SH2 domain = GRB7 SH2 domain (Homo sapiens, UniProt Q14451); assay: FP saturation binding assay; settings: Mean KD (μM), protein GRB7; FP, high-confidence ErbB interactions; mean of replicate hits
# PIK3R1-C SH2 domain = target: T11, PIK3R1-C SH2 domain (Homo sapiens, UniProt P27986); assay: FP saturation binding assay; settings: protein PIK3R1-C, high-confidence ErbB interactions, mean of replicate hits
# T11 construct: 6X His; thioredoxin; made in house; host or cells: E. coli BL21(DE3)pLysS
# Procedure, shortened: as §1
# Chain of PIK3R2-NC tandem SH2 domains (O00459 330-716 limits assumed): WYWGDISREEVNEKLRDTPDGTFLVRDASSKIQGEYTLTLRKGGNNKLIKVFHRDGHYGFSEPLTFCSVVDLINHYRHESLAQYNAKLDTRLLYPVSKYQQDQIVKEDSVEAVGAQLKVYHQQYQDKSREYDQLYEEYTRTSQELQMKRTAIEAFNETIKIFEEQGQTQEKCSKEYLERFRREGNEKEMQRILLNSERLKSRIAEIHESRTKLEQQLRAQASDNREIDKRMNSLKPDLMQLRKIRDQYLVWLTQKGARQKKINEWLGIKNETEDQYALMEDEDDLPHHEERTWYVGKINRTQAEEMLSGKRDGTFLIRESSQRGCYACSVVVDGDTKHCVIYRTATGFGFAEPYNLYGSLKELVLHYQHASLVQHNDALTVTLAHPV
# Chain of PIK3R2-N SH2 domain (O00459 330-425 limits assumed): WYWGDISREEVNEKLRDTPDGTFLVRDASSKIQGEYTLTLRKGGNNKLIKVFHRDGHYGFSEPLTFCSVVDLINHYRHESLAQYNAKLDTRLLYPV
# T7 sequence (P07947 158-255 limits assumed): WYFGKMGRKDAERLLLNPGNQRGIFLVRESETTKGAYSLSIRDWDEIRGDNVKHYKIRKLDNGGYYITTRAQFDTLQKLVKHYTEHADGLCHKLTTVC
# T6 sequence (P06239 127-224 limits assumed): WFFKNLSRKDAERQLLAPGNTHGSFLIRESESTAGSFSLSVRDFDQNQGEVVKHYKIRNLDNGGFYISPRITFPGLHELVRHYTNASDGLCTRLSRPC
# T10 sequence (P27986 333-428 limits assumed): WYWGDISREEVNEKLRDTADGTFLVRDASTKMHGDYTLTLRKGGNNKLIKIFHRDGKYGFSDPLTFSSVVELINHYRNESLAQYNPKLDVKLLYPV
# T11 sequence (P27986 624-718 limits assumed): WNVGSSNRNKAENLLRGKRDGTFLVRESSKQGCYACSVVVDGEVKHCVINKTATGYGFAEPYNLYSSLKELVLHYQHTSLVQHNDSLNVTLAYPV
# T8 sequence (Q13882 78-170 limits assumed): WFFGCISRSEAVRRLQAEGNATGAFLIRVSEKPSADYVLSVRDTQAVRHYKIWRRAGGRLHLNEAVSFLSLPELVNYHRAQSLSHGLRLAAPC
# Chain of GRB7 SH2 domain (Q14451 431-527 limits assumed): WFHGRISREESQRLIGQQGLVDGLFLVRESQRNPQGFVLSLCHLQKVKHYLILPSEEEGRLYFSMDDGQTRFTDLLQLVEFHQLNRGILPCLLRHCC
smiles,measurement,setting,value
CSCC[C@H](NC(=O)[C@@H](NC(=O)[C@H](Cc1ccc(OP(=O)(O)O)cc1)NC(=O)[C@H](C)NC(=O)[C@H](CCC(=O)O)NC(=O)[C@H](CC(=O)O)NC(=O)[C@@H](N)CC(C)C)C(C)C)C(=O)N[C@@H](C)C(=O)N[C@@H](CO)C(=O)N[C@H](C(=O)N[C@@H](CC(=O)O)C(=O)N[C@@H](CC(N)=O)C(=O)N[C@@H](CC(=O)O)C(=O)O)C(C)C [ErbB1 764 13-mer] (HELM PEPTIDE1{L.D.E.A.[O=C([C@H](Cc1ccc(OP(=O)(O)O)cc1)N[*:1])[*:2]].V.M.A.S.V.D.N.D}$$$$V2.0),Kd,RASA1-N SH2 domain,9.7 µM
same,Kd,PIK3R2-N SH2 domain,2.36 µM
same,Kd,[1],1.91 µM
same,Kd,[2],3.07 µM
CSCC[C@H](NC(=O)[C@H](CC(C)C)NC(=O)[C@H](C)NC(=O)[C@H](CCCNC(=N)N)NC(=O)[C@H](Cc1ccc(OP(=O)(O)O)cc1)NC(=O)[C@H](Cc1ccccc1)NC(=O)[C@H](CC(N)=O)NC(=O)[C@H](CO)NC(=O)[C@@H](N)CC(=O)O)C(=O)N[C@@H](CC(=O)O)C(=O)N[C@@H](CCC(=O)O)C(=O)N[C@@H](CCC(=O)O)C(=O)N[C@@H](CC(=O)O)C(=O)O [ErbB1 998 13-mer] (HELM PEPTIDE1{D.S.N.F.[O=C([C@H](Cc1ccc(OP(=O)(O)O)cc1)N[*:1])[*:2]].R.A.L.M.D.E.E.D}$$$$V2.0),Kd,RASA1-N SH2 domain,2.85 µM
same,Kd,SH2D1B SH2 domain,3.98 µM
same,Kd,PTPN11-N SH2 domain,13.1 µM
same,Kd,[3],12.6 µM
same,Kd,LCK SH2 domain,5.79 µM
same,Kd,YES1 SH2 domain,7.05 µM
CC[C@H](C)[C@H](NC(=O)[C@H](CC(C)C)NC(=O)[C@H](Cc1ccc(OP(=O)(O)O)cc1)NC(=O)[C@H](CCC(=O)O)NC(=O)[C@H](CC(=O)O)NC(=O)[C@H](C)NC(=O)[C@@H](N)CC(=O)O)C(=O)N1CCC[C@H]1C(=O)N[C@@H](CCC(N)=O)C(=O)N[C@@H](CCC(N)=O)C(=O)NCC(=O)N[C@@H](Cc1ccccc1)C(=O)N[C@@H](CC(=O)O)C(=O)O [ErbB1 1016 13-mer],Kd,RASA1-N SH2 domain,1.67 µM
same,Kd,PIK3R2-N SH2 domain,2.48 µM
same,Kd,PTK6 SH2 domain,3.04 µM
same,Kd,[3],1.1 µM
same,Kd,PIK3R3-N SH2 domain,3.21 µM
same,Kd,[2],2.43 µM
CSCC[C@H](NC(=O)[C@H](Cc1ccc(O)cc1)NC(=O)[C@H](CCC(=O)O)NC(=O)[C@H](Cc1ccc(OP(=O)(O)O)cc1)NC(=O)[C@H](CC(=O)O)NC(=O)[C@H](CCC(=O)O)NC(=O)[C@H](CC(=O)O)NC(=O)[C@@H]1CCCN1)C(=O)N[C@@H](CC(N)=O)C(=O)N[C@@H](CCCNC(=N)N)C(=O)N[C@@H](CCC(N)=O)C(=O)N[C@@H](CCCNC(=N)N)C(=O)N[C@@H](CC(=O)O)C(=O)O [ErbB3 1260 13-mer] (HELM PEPTIDE1{P.D.E.D.[O=C([C@H](Cc1ccc(OP(=O)(O)O)cc1)N[*:1])[*:2]].E.Y.M.N.R.Q.R.D}$$$$V2.0),Kd,PIK3R1-N SH2 domain,0.48 µM
same,Kd,GRB7 SH2 domain,0.1 µM
same,Kd,PIK3R1-C SH2 domain,0.47 µM
